SMILES strings stand for the structures. Converted amounts (≈) assume the structure as drawn. Positions of bridges follow the written chain, without caps; N, C: chain ends. Non-standard residues stand in square brackets, D forms with d. Residues, ends and D or L forms follow the SMILES beside them. *: point of attachment. CH2CH2OBz(4-tBu) = CC(C)(C)c1ccc(C(=O)OCC*)cc1; Ethyl(2-decanoyloxy) = CCCCCCCCCC(=O)OCC*; Ethyl(2-butanoyloxy) = CCCC(=O)OCC*; Ethyl(2-propionyloxy) = CCC(=O)OCC*; Ethyl(2-OPiv) = CC(C)(C)C(=O)OCC*; Ethyl(2-OBz) = O=C(OCC*)c1ccccc1; X14 = CCCCCCCCCCCC(=O)OCC*; hCys = N[C@@H](CCS)C(=O)O; Dab = NCC[C@H](N)C(=O)O; Dap = NC[C@H](N)C(=O)O; X4 = CCCCCCCC(=O)OCC*; X1 = CCCCCC(=O)OCC*; Mpa = O=C(O)CCS Bounds are passed on as bounds.

The subject of one experiment is E. coli ATCC 25922. The format is cell-based, Escherichia coli. Conditions: ATCC 25922. An excerpt: All 81 compounds prepared in Examples 2 and 3 underwent screening against a panel of Gram-negative bacterium to assess their ability to inhibit bacterial growth. […] The median value is presented.
`CCC(=O)OCCSC[C@H](N)C(=O)N[C@H](C(=O)N[C@@H](CCN)C(=O)N[C@H]1CCNC(=O)[C@H]([C@@H](C)O)NC(=O)[C@H](CCN)NC(=O)[C@H](CCN)NC(=O)[C@H](CC(C)C)NC(=O)[C@@H](Cc2ccccc2)NC(=O)[C@H](CCN)NC1=O)[C@@H](C)O` [Compound 61] (H-C(Ethyl(2-propionyloxy))T[Dab][Dab][Dab][dF]L[Dab][Dab]T; lactam 4-C): the “MIC E. coli ATCC 25922” value was more than 128 µg/mL.

With `CCC(=O)OCCSC[C@@H](N)C(=O)N[C@H](C(=O)N[C@@H](CCN)C(=O)N[C@H]1CCNC(=O)[C@H]([C@@H](C)O)NC(=O)[C@H](CCN)NC(=O)[C@H](CCN)NC(=O)[C@H](CC(C)C)NC(=O)[C@@H](Cc2ccccc2)NC(=O)[C@H](CCN)NC1=O)[C@@H](C)O` [Compound 62] (H-[dC](Ethyl(2-propionyloxy))T[Dab][Dab][Dab][dF]L[Dab][Dab]T; lactam 4-C), the “MIC E. coli ATCC 25922” value was 1 µg/mL (≈ 0.857 µM).

`CCC(=O)OCCSCCC(=O)N[C@H](C(=O)N[C@@H](CCN)C(=O)N[C@H]1CCNC(=O)[C@H]([C@@H](C)O)NC(=O)[C@H](CCN)NC(=O)[C@H](CCN)NC(=O)[C@H](CC(C)C)NC(=O)[C@@H](Cc2ccccc2)NC(=O)[C@H](CCN)NC1=O)[C@@H](C)O` [Compound 63] ([Mpa](Ethyl(2-propionyloxy))T[Dab][Dab][Dab][dF]L[Dab][Dab]T; lactam 4-C): the “MIC E. coli ATCC 25922” value was 8 µg/mL (≈ 6.95 µM).

As for `CCC(=O)OCCSCC[C@H](N)C(=O)N[C@H](C(=O)N[C@@H](CCN)C(=O)N[C@H]1CCNC(=O)[C@H]([C@@H](C)O)NC(=O)[C@H](CCN)NC(=O)[C@H](CCN)NC(=O)[C@H](CC(C)C)NC(=O)[C@@H](Cc2ccccc2)NC(=O)[C@H](CCN)NC1=O)[C@@H](C)O` [Compound 64] (H-[hCys](Ethyl(2-propionyloxy))T[Dab][Dab][Dab][dF]L[Dab][Dab]T; lactam 4-C), the “MIC E. coli ATCC 25922” value is more than 128 µg/mL.

Regarding `CCC(=O)OCCSC[C@H](N)C(=O)N[C@H](C(=O)N[C@@H](CCN)C(=O)N[C@H]1CCNC(=O)[C@H]([C@@H](C)O)NC(=O)[C@H](CCN)NC(=O)[C@H](CCN)NC(=O)[C@H](CC(C)C)NC(=O)[C@@H](Cc2ccccc2)NC(=O)[C@H](CCN)NC1=O)[C@@H](C)O` [Compound 65] (H-C(Ethyl(2-propionyloxy))T[Dab][Dab][Dab][dF]L[Dab][Dab]T; lactam 4-C), the “MIC E. coli ATCC 25922” value worked out at 64 µg/mL (≈ 54.9 µM).

With `CCCC(=O)OCCSC[C@H](N)C(=O)N[C@H](C(=O)N[C@@H](CCN)C(=O)N[C@H]1CCNC(=O)[C@H]([C@@H](C)O)NC(=O)[C@H](CCN)NC(=O)[C@H](CCN)NC(=O)[C@H](CC(C)C)NC(=O)[C@@H](Cc2ccccc2)NC(=O)[C@H](CCN)NC1=O)[C@@H](C)O` [Compound 66] (H-C(Ethyl(2-butanoyloxy))T[Dab][Dab][Dab][dF]L[Dab][Dab]T; lactam 4-C), the “MIC E. coli ATCC 25922” value amounted to 16 µg/mL (≈ 13.6 µM).

With `CCCCCC(=O)OCCSC[C@H](N)C(=O)N[C@H](C(=O)N[C@@H](CCN)C(=O)N[C@H]1CCNC(=O)[C@H]([C@@H](C)O)NC(=O)[C@H](CCN)NC(=O)[C@H](CCN)NC(=O)[C@H](CC(C)C)NC(=O)[C@@H](Cc2ccccc2)NC(=O)[C@H](CCN)NC1=O)[C@@H](C)O` [Compound 67] (H-C(X1)T[Dab][Dab][Dab][dF]L[Dab][Dab]T; lactam 4-C), the “MIC E. coli ATCC 25922” value was 4 µg/mL (≈ 3.31 µM).

For the compound `CCCCCCCC(=O)OCCSC[C@H](N)C(=O)N[C@H](C(=O)N[C@@H](CCN)C(=O)N[C@H]1CCNC(=O)[C@H]([C@@H](C)O)NC(=O)[C@H](CCN)NC(=O)[C@H](CCN)NC(=O)[C@H](CC(C)C)NC(=O)[C@@H](Cc2ccccc2)NC(=O)[C@H](CCN)NC1=O)[C@@H](C)O` [Compound 68] (H-C(X4)T[Dab][Dab][Dab][dF]L[Dab][Dab]T; lactam 4-C), the “MIC E. coli ATCC 25922” value was 1 µg/mL (≈ 0.809 µM).

In the case of `CCCCCCCCCC(=O)OCCSC[C@H](N)C(=O)N[C@H](C(=O)N[C@@H](CCN)C(=O)N[C@H]1CCNC(=O)[C@H]([C@@H](C)O)NC(=O)[C@H](CCN)NC(=O)[C@H](CCN)NC(=O)[C@H](CC(C)C)NC(=O)[C@@H](Cc2ccccc2)NC(=O)[C@H](CCN)NC1=O)[C@@H](C)O` [Compound 69] (H-C(Ethyl(2-decanoyloxy))T[Dab][Dab][Dab][dF]L[Dab][Dab]T; lactam 4-C), the “MIC E. coli ATCC 25922” value stood at 2 µg/mL (≈ 1.58 µM).

With `CCCCCCCCCCCC(=O)OCCSC[C@H](N)C(=O)N[C@H](C(=O)N[C@@H](CCN)C(=O)N[C@H]1CCNC(=O)[C@H]([C@@H](C)O)NC(=O)[C@H](CCN)NC(=O)[C@H](CCN)NC(=O)[C@H](CC(C)C)NC(=O)[C@@H](Cc2ccccc2)NC(=O)[C@H](CCN)NC1=O)[C@@H](C)O` [Compound 70] (H-C(X14)T[Dab][Dab][Dab][dF]L[Dab][Dab]T; lactam 4-C), the “MIC E. coli ATCC 25922” value is 8 µg/mL (≈ 6.19 µM).

Take `CC(C)C[C@@H]1NC(=O)[C@@H](Cc2ccccc2)NC(=O)[C@H](CCN)NC(=O)[C@@H](NC(=O)[C@H](CCN)NC(=O)[C@@H](NC(=O)[C@@H](N)CSCCOC(=O)C(C)(C)C)[C@@H](C)O)CCNC(=O)[C@H]([C@@H](C)O)NC(=O)[C@H](CCN)NC(=O)[C@H](CCN)NC1=O` [Compound 71] (H-C(Ethyl(2-OPiv))T[Dab][Dab][Dab][dF]L[Dab][Dab]T; lactam 4-C): the “MIC E. coli ATCC 25922” value stood at 32 µg/mL (≈ 26.8 µM).

`CC(C)C[C@@H]1NC(=O)[C@@H](Cc2ccccc2)NC(=O)[C@H](CCN)NC(=O)[C@@H](NC(=O)[C@H](CCN)NC(=O)[C@@H](NC(=O)[C@@H](N)CSCCOC(=O)c2ccc(C(C)(C)C)cc2)[C@@H](C)O)CCNC(=O)[C@H]([C@@H](C)O)NC(=O)[C@H](CCN)NC(=O)[C@H](CCN)NC1=O` [Compound 73] (H-C(CH2CH2OBz(4-tBu))T[Dab][Dab][Dab][dF]L[Dab][Dab]T; lactam 4-C): the “MIC E. coli ATCC 25922” value turned out to be 1 µg/mL (≈ 0.787 µM).

As for `CCC(=O)OCCSC[C@@H](N)C(=O)N[C@H](C(=O)N[C@@H](CCN)C(=O)N[C@H]1CCNC(=O)[C@H]([C@@H](C)O)NC(=O)[C@H](CCN)NC(=O)[C@H](CCN)NC(=O)[C@H](CC(C)C)NC(=O)[C@@H](Cc2ccccc2)NC(=O)[C@H](CCN)NC1=O)[C@@H](C)O` [Compound 74] (H-[dC](Ethyl(2-propionyloxy))T[Dab][Dab][Dab][dF]L[Dab][Dab]T; lactam 4-C), the “MIC E. coli ATCC 25922” value is 2 µg/mL (≈ 1.71 µM).

For the compound `CCCC(=O)OCCSC[C@@H](N)C(=O)N[C@H](C(=O)N[C@@H](CCN)C(=O)N[C@H]1CCNC(=O)[C@H]([C@@H](C)O)NC(=O)[C@H](CCN)NC(=O)[C@H](CCN)NC(=O)[C@H](CC(C)C)NC(=O)[C@@H](Cc2ccccc2)NC(=O)[C@H](CCN)NC1=O)[C@@H](C)O` [Compound 75] (H-[dC](Ethyl(2-butanoyloxy))T[Dab][Dab][Dab][dF]L[Dab][Dab]T; lactam 4-C), the “MIC E. coli ATCC 25922” value amounted to 1 µg/mL (≈ 0.847 µM).

On to `CCCCCC(=O)OCCSC[C@@H](N)C(=O)N[C@H](C(=O)N[C@@H](CCN)C(=O)N[C@H]1CCNC(=O)[C@H]([C@@H](C)O)NC(=O)[C@H](CCN)NC(=O)[C@H](CCN)NC(=O)[C@H](CC(C)C)NC(=O)[C@@H](Cc2ccccc2)NC(=O)[C@H](CCN)NC1=O)[C@@H](C)O` [Compound 76] (H-[dC](X1)T[Dab][Dab][Dab][dF]L[Dab][Dab]T; lactam 4-C), for which the “MIC E. coli ATCC 25922” value is 0.125 µg/mL (≈ 0.103 µM).

In the case of `CCCCCCCC(=O)OCCSC[C@@H](N)C(=O)N[C@H](C(=O)N[C@@H](CCN)C(=O)N[C@H]1CCNC(=O)[C@H]([C@@H](C)O)NC(=O)[C@H](CCN)NC(=O)[C@H](CCN)NC(=O)[C@H](CC(C)C)NC(=O)[C@@H](Cc2ccccc2)NC(=O)[C@H](CCN)NC1=O)[C@@H](C)O` [Compound 77] (H-[dC](X4)T[Dab][Dab][Dab][dF]L[Dab][Dab]T; lactam 4-C), the “MIC E. coli ATCC 25922” value is 0.25 µg/mL (≈ 0.202 µM).

Take `CC(C)C[C@@H]1NC(=O)[C@@H](Cc2ccccc2)NC(=O)[C@H](CCN)NC(=O)[C@@H](NC(=O)[C@H](CCN)NC(=O)[C@@H](NC(=O)[C@H](N)CSCCOC(=O)C(C)(C)C)[C@@H](C)O)CCNC(=O)[C@H]([C@@H](C)O)NC(=O)[C@H](CCN)NC(=O)[C@H](CCN)NC1=O` [Compound 79] (H-[dC](Ethyl(2-OPiv))T[Dab][Dab][Dab][dF]L[Dab][Dab]T; lactam 4-C): the “MIC E. coli ATCC 25922” value was determined as 0.25 µg/mL (≈ 0.209 µM).

On to `CC(C)C[C@@H]1NC(=O)[C@@H](Cc2ccccc2)NC(=O)[C@H](CCN)NC(=O)[C@@H](NC(=O)[C@H](CCN)NC(=O)[C@@H](NC(=O)[C@H](N)CSCCOC(=O)c2ccc(C(C)(C)C)cc2)[C@@H](C)O)CCNC(=O)[C@H]([C@@H](C)O)NC(=O)[C@H](CCN)NC(=O)[C@H](CCN)NC1=O` [Compound 80] (H-[dC](CH2CH2OBz(4-tBu))T[Dab][Dab][Dab][dF]L[Dab][Dab]T; lactam 4-C), for which the “MIC E. coli ATCC 25922” value was determined as 0.5 µg/mL (≈ 0.394 µM).

In the case of `CCC(=O)OCCSC[C@H](N)C(=O)N[C@H](C(=O)N[C@@H](CN)C(=O)N[C@H]1CCNC(=O)[C@H]([C@@H](C)O)NC(=O)[C@H](CCN)NC(=O)[C@H](CCN)NC(=O)[C@H](CC(C)C)NC(=O)[C@@H](Cc2ccccc2)NC(=O)[C@H](CCN)NC1=O)[C@@H](C)O` [Compound 81] (H-C(Ethyl(2-propionyloxy))T[Dap][Dab][Dab][dF]L[Dab][Dab]T; lactam 4-C), the “MIC E. coli ATCC 25922” value was 16 µg/mL (≈ 13.9 µM).

Take `CCC(=O)OCCSC[C@@H](N)C(=O)N[C@H](C(=O)N[C@@H](CN)C(=O)N[C@H]1CCNC(=O)[C@H]([C@@H](C)O)NC(=O)[C@H](CCN)NC(=O)[C@H](CCN)NC(=O)[C@H](CC(C)C)NC(=O)[C@@H](Cc2ccccc2)NC(=O)[C@H](CCN)NC1=O)[C@@H](C)O` [Compound 82] (H-[dC](Ethyl(2-propionyloxy))T[Dap][Dab][Dab][dF]L[Dab][Dab]T; lactam 4-C): the “MIC E. coli ATCC 25922” value is 1 µg/mL (≈ 0.868 µM).

Staying with this experiment, now noted: median of triplicate.
Take `CC(C)C[C@@H]1NC(=O)[C@@H](Cc2ccccc2)NC(=O)[C@H](CCN)NC(=O)[C@@H](NC(=O)[C@H](CCN)NC(=O)[C@@H](NC(=O)[C@@H](N)CSCCOC(=O)c2ccccc2)[C@@H](C)O)CCNC(=O)[C@H]([C@@H](C)O)NC(=O)[C@H](CCN)NC(=O)[C@H](CCN)NC1=O` [Compound 72] (H-C(Ethyl(2-OBz))T[Dab][Dab][Dab][dF]L[Dab][Dab]T; lactam 4-C): the “MIC E. coli ATCC 25922” value was found to be 8 µg/mL (≈ 6.59 µM).

These data come from patent US20250282827A1, “LIPIDATED POLYMYXIN ANALOGUES” (priority 2021, published 2025).
